Columns and labels:
Type in all cases: cell-based
hCav3.2 = hCav3.2 (Homo sapiens, UniProt O95180); assay: whole-cell patch clamp, % inhibition of current; settings: read-out: 20μM
hCav3.3 = hCav3.3 (Homo sapiens, UniProt Q9P0X4); assay: whole-cell patch clamp, % inhibition of current; settings: read-out: 20μM
rCav2.2 = rCav2.2 (Rattus norvegicus, UniProt Q02294); assay: whole-cell patch clamp, % inhibition of current at […]; settings: read-out: % inhibition at 20 μM
Sequence of rCav2.2 (Q02294 whole entry): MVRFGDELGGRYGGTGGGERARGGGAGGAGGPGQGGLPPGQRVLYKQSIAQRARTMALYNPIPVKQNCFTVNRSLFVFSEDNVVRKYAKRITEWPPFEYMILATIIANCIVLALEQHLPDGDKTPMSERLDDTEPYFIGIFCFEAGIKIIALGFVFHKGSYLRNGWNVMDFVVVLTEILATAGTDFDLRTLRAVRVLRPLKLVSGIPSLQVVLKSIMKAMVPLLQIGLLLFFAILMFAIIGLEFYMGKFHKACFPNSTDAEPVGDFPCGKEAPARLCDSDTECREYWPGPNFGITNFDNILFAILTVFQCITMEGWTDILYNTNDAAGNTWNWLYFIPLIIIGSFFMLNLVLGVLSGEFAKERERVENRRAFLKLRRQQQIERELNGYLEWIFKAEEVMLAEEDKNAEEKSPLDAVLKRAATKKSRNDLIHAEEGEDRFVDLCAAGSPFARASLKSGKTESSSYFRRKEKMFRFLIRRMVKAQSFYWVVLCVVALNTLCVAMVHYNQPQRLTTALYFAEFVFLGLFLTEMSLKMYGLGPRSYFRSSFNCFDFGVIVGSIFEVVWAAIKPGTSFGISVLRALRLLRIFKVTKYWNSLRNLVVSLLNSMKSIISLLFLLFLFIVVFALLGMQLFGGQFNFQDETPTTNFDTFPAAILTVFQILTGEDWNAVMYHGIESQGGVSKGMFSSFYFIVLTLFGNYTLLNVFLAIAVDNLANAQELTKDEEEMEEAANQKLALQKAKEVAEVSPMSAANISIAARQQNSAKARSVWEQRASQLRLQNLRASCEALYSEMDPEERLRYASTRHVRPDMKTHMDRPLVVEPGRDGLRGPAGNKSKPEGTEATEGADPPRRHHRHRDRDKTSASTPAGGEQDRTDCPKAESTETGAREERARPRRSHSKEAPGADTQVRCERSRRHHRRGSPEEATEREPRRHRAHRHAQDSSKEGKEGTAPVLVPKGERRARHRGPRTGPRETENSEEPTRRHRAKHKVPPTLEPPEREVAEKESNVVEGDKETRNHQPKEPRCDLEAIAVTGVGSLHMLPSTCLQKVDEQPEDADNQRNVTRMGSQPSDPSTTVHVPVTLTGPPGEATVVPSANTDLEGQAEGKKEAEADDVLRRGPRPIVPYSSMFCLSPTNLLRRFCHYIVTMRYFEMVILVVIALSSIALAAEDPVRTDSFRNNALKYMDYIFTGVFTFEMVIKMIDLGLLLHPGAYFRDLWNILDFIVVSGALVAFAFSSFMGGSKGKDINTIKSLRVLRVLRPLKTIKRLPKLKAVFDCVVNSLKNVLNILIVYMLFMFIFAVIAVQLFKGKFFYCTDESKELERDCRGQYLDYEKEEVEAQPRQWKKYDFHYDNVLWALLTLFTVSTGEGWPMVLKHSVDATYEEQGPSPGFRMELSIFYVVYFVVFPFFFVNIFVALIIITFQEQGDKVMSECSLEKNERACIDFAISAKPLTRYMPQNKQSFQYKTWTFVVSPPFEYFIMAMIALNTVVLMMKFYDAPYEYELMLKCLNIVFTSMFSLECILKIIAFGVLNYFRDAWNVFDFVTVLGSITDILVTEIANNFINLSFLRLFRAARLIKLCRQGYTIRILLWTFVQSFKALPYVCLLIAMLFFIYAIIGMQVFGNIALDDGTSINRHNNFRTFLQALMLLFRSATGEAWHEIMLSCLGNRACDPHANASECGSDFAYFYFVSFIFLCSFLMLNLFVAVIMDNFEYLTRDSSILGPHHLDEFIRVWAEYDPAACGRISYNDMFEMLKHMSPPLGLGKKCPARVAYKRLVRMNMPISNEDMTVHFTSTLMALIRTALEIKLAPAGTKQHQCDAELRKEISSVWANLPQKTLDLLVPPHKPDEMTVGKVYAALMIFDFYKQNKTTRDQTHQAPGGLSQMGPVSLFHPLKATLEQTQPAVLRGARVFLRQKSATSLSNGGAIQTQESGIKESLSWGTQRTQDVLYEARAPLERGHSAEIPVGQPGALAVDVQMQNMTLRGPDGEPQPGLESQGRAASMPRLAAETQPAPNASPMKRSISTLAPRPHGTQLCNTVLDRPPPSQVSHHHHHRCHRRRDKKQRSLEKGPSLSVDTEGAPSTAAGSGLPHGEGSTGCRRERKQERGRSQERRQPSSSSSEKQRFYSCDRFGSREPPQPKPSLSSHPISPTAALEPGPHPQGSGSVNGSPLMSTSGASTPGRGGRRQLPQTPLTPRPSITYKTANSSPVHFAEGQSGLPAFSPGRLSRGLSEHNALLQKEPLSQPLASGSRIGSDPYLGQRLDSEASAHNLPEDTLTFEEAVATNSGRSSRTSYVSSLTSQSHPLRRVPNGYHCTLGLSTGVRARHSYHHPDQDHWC

Sequence of hCav3.3 (Q9P0X4 whole entry): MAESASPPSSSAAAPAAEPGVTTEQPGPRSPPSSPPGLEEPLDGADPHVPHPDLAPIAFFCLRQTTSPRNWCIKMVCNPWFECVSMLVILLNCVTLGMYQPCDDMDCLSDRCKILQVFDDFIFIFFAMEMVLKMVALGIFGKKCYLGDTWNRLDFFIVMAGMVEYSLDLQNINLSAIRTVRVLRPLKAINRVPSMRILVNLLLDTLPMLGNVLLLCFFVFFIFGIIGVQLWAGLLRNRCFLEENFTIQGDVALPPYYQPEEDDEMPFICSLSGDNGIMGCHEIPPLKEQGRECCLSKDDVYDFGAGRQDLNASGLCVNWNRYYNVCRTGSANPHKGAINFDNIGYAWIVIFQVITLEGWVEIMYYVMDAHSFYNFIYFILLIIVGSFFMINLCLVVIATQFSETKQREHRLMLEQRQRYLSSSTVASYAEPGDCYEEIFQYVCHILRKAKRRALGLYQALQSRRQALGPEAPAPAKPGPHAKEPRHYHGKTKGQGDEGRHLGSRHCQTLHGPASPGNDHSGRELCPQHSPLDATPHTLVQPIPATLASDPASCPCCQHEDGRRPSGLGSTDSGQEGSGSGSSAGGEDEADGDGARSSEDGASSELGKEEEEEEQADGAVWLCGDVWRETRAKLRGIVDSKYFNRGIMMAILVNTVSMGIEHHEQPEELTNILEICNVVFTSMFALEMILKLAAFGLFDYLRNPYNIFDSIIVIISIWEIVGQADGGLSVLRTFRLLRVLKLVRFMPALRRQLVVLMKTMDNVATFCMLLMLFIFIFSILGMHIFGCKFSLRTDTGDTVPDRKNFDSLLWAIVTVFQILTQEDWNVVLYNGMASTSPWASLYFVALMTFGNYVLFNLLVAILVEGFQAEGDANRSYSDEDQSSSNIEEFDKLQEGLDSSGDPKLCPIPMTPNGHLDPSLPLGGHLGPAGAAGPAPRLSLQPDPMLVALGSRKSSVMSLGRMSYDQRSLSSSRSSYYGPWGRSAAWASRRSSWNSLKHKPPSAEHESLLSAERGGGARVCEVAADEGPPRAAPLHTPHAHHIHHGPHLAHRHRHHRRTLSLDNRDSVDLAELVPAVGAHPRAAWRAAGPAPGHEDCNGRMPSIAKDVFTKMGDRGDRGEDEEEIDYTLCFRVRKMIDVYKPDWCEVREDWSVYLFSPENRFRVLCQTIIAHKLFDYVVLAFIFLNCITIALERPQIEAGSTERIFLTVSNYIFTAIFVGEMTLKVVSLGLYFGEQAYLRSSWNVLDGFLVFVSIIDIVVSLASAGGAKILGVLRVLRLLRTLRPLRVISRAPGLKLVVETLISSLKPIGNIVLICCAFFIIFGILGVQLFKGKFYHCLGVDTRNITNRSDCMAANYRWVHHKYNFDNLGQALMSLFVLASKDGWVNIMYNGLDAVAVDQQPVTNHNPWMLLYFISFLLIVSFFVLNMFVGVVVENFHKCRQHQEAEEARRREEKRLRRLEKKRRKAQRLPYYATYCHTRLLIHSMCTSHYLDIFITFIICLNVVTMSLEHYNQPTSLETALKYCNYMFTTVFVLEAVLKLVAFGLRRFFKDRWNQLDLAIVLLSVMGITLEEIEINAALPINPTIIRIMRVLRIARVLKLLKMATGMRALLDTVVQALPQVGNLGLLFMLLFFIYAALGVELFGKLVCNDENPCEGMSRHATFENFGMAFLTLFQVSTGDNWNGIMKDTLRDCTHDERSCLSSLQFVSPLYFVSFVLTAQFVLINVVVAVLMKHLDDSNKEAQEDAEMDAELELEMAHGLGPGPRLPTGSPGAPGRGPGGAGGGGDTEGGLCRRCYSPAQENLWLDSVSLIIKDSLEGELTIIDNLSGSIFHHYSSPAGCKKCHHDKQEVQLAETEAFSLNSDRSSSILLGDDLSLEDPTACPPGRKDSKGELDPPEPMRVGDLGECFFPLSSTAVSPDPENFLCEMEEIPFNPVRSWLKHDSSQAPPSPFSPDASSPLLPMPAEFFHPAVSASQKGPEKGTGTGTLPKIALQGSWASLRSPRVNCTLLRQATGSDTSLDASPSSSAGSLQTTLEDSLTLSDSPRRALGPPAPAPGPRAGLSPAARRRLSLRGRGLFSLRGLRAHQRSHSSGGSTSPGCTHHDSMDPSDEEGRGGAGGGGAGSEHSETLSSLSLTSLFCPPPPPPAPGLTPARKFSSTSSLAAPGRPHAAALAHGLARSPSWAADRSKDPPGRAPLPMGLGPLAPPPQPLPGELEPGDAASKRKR

C=C(C)[C@@H]1CC[C@]2(C(=O)O)CC[C@]3(C)[C@H](CC[C@@H]4[C@@]5(C)CC[C@H](O)C(C)(C)[C@@H]5CC[C@]43C)[C@@H]12 [BA, betulinic acid] was tested, and the inhibition at 20 µM (hCav3.2) was 66.1 ± 4.6%, the inhibition at 20 µM (hCav3.3) was 31.4 ± 1.8% and the inhibition at 20 µM (rCav2.2) was 69.8 ± 2.5%.
